Measurements: patent US10624893B2 (priority 2016, dated 2020)
Converted amounts (≈) assume the structure as drawn. Read-outs that look alike come from different tables or passages of the source.

How the values were obtained:
[1] = system: Mycobacterium tuberculosis (H37Rv strain from ATCC cat #27294) expressing the green-fluorescent protein (GFP); experiment: microbe, parasite or virus in culture; format: cell-based; settings: 120 h
[2] = system: Mycobacterium tuberculosis growing inside murine Raw 264.7 cell line; experiment: microbe, parasite or virus in culture; format: cell-based; settings: H37RV, RAW264.7, 120 h
[3] = system: M. tuberculosis H37Rv strain; settings: for reduction of microorganism burden in lungs with respect to untreated controls (Day 9): C57BL/6 mice
[4] = system: Mycobacterium bovis BCG str. Pasteur 1173P2; experiment: microbe, parasite or virus in culture; format: cell-based
[5] = system: Mycobacterium tuberculosis growing inside human THP-1 monocytes; experiment: Intracellular viability assay 1a (THP-1, luciferase, Steady-Glo); format: cell-based, Mycobacterium tuberculosis H37Rv; settings: THP-1, 120 h
[6] = system: Mycobacterium tuberculosis growing inside human THP-1 monocytes; experiment: Intracellular viability assay 1b (THP-1, luciferase, Bright-Glo); format: cell-based, Mycobacterium tuberculosis H37Rv; settings: THP-1, 120 h
[7] = system: M. tuberculosis strain H37Rv; experiment: Extracellular viability assay, glucose media (Method 2), resazurin MIC; format: cell-based; settings: Mycobacterium tuberculosis
[8] = system: Mycobacterium tuberculosis Erdman strain; experiment: Extracellular viability assay, Erdman strain, cholesterol media (Method 3); format: cell-based; settings: 0.01% cholesterol medium, 7 days + 48 h resazurin, average over 5 measurements
[9] = system: M. africanum; experiment: Extracellular MIC assay of Example 7, M. africanum; format: cell-based; settings: Mycobacterium tuberculosis, cholesterol medium
[10] = system: M. bovis 0AF2122; experiment: microbe, parasite or virus in culture; format: cell-based; settings: Mycobacterium tuberculosis variant bovis, 0AF2122, read-out: MIC 2
[11] = read-out: IC50 (uM) (cholesterol media)
[12] = read-out: IC50 (uM) (glucose media)

Row | Structure (SMILES) | IC50 [1, 11] | IC50 [1, 12] | IC50 [2] | reduction of microorganism burden in lungs with respect to untreated controls (Day 9) ([3]; 30 mg/kg once a day for 8 days) | inhibition at 2 µM ([4]; Mycobacterium tuberculosis variant bovis BCG, BCG) | IC50 [5] | IC50 [6] | % Inhibition [4] | MIC [7] | IC50 [8] | MIC ([9]; read-out: MIC 1) | MIC ([9]; read-out: MIC 2) | MIC [10] | reduction of microorganism burden in lungs with respect to untreated controls (Day 9) ([3]; 200 mg/kg once a day for 8 days) | oral bioavailability (conclusion from murine in vivo data) ([3]; mouse)
1 | NNC(=O)c1ccncc1 [Isoniazid] | 0.2 µM | 0.5 µM | 70 nM | – | – | – | – | – | – | – | – | – | – | – | –
2 | COc1c(N2C[C@@H]3CCCN[C@@H]3C2)c(F)cc2c(=O)c(C(=O)O)cn(C3CC3)c12 [Moxifloxacin, reference compound] | – | – | – | 3.2 log10 CFU | – | – | – | – | – | – | – | – | – | – | –
3 | CO[C@H]1/C=C/O[C@@]2(C)Oc3c(C)c(O)c4c(O)c(c(/C=N/N5CCN(C)CC5)c(O)c4c3C2=O)NC(=O)/C(C)=C\C=C\[C@H](C)[C@H](O)[C@@H](C)[C@@H](O)[C@@H](C)[C@H](OC(C)=O)[C@@H]1C [Rifampicin, reference compound] | 0.04 µM | 0.02 µM | 200 nM | – | 100% | 10 nM | 2 nM | – | – | – | – | – | – | – | –
4 | Cc1cccc(OC2CCN(Cc3cc(=O)[nH]c(=O)[nH]3)CC2)c1C [Test Compound, 6-((4-(2,3-dimethylphenoxy)piperidin-1-yl)methyl)pyrimidine-2,4(1H,3H)-dione] | 0.28 µM | > 20 µM | 60 nM | – | – | 390 nM | 70 nM | 46.18% | > 12.5 µM | 874 nM | 1.2 µM (≈ 0.395 µg/mL) | 1.2 µM (≈ 0.395 µg/mL) | 0.78 µM (≈ 0.257 µg/mL) | 1.6 log10 CFU | orally bioavailable
